Source: ChEMBL document CHEMBL1201862, “PubChem BioAssay data set” (2004)
Calls of active or inactive are those of the source.

Key:
Staphylococcus aureus = assay: Inhibitors of Bacterial Quorum Sensing Structure Activity Relationship (SAR) Analysis: Dose Response Assay. [Related pubchem assays: 700, 527 ]; assay type: functional, organism-based
[1] = molecular target: T1, RNA-binding protein pos-1 (Caenorhabditis elegans, UniProt G5EF15); assay: inhibitors of POS-1/mex-3 RNA binding, dose response, biochemical, fluorescence polarization (AID 1964);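 further: purified POS-1 fused to maltose binding protein made in E. coli; potency of compounds blocking POS-1 binding to fluorescent RNA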
T1 sequence (G5EF15 whole entry): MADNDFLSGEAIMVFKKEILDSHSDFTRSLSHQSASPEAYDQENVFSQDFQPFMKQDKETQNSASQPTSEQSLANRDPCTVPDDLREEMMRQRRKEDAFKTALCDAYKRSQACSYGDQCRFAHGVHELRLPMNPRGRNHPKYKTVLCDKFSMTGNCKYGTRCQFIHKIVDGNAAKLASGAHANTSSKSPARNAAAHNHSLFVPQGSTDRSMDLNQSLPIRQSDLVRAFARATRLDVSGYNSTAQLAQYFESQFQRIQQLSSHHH

SUMO-activating enzyme [2] = molecular target: T2, SUMO-activating enzyme (Homo sapiens, UniProt Q9UBT2); assay: SUMOylation inhibitor hit validation, confirmation, SUMOylation inhibitor project, biochemical, AlphaScreen (AID 2018); assay type: functional
[3] = molecular target: T3, Zinc finger protein mex-5 (Caenorhabditis elegans, UniProt Q9XUB2); assay: MEX-5/TCR-2 RNA interaction inhibitors, dose response, biochemical, C. elegans, fluorescence polarization (AID 1960)
T3 sequence (Q9XUB2 whole entry): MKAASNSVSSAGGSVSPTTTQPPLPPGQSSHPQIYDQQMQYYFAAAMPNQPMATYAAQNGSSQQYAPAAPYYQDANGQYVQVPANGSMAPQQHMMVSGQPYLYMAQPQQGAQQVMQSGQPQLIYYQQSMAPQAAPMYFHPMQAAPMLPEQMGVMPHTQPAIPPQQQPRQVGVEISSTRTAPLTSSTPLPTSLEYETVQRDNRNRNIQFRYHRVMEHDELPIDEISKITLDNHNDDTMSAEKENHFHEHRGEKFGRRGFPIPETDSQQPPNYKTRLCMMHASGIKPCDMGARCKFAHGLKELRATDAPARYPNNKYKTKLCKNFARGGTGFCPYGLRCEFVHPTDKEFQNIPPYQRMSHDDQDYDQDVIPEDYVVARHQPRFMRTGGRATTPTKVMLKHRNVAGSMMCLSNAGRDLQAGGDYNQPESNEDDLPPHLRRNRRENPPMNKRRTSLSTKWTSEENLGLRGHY

Large T antigen = Large T antigen (Simian virus 40, UniProt P03070); assay type: functional, Betapolyomavirus macacae;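 further: Confirmatory-stage PubChem screen for compounds that inhibit SV40 T antigen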
SUMO-activating enzyme [4] = molecular target: T2, SUMO-activating enzyme; assay: inhibitors of in vitro SUMOylation cascade, primary screen, biochemical, HTRF, uHTS (AID 2006); assay type: protein-complex assay
Cytochrome P450 2C19 = Cytochrome P450 2C19 (Homo sapiens, UniProt P33261); assay: Cytochrome panel assay with activity outcomes. Panel member name: p450-cyp2c19 Compounds with AC50 equal or less than 10 uM are considered active; assay type: functional; settings: read-out: AC50
Cytochrome P450 2D6 = Cytochrome P450 2D6 (Homo sapiens, UniProt P10635);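 further: CYP2D6 member of a cytochrome P450 panel assay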
Cytochrome P450 1A2 = molecular target: T4, Cytochrome P450 1A2 (Homo sapiens, UniProt P05177);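 further: PubChem cytochrome P450 panel assay, CYP1A2 panel member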
T4 sequence (P05177 whole entry): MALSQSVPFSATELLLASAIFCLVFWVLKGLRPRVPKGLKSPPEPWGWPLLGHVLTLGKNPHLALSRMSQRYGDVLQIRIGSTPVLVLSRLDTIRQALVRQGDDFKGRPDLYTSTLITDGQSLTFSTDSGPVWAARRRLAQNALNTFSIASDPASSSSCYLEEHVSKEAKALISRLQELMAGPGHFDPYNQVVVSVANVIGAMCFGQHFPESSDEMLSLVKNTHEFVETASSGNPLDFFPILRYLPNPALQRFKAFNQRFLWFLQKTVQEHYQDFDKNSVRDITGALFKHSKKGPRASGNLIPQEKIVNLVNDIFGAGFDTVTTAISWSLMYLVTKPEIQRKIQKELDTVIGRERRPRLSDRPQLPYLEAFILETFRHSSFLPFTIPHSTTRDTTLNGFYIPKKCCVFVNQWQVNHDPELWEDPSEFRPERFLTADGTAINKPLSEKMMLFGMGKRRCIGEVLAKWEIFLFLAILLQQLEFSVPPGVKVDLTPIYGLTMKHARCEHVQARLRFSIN

[5] = HEp-2 cell cytotoxicity, dose response, cytotoxicity control for RSV inhibitor project, HTS (AID 2410); assay type: functional; settings: human respiratory syncytial virus
[6] = molecular target: Neuropeptides B/W receptor type 1 (Homo sapiens, UniProt P48145); assay: Fluorescence-based dose response cell-based high throughput screening assay to identify antagonists of the G-protein coupled receptor 7 (GPR7). [Related pubchem assays: 1952 (Screening assay (GPR7 antagonists).), 1880 (Summary AID.)]; assay type: functional
[7] = molecular target: Melanin-concentrating hormone receptor 1 (Homo sapiens, UniProt Q99705); assay: Fluorescence-based counterscreen for antagonists of the G-protein coupled receptor 7 (GPR7): cell-based high throughput dose response assay to identify antagonists of the melanin-concentrating hormone receptor 1 (MCHR1).; assay type: functional
[8] = molecular target: Cyclin-dependent kinase 5/CDK5 activator 1 (Homo sapiens, UniProt Q00535); assay: CDK5/p35 kinase inhibitors, dose response, biochemical, cherry-picked samples, set 2 (AID 504545)
[9] = molecular target: T5, Endoribonuclease toxin MazF (Escherichia coli K-12, UniProt P0AE70); assay: MazF toxin RNase activators, dose response, biochemical, fluorescence, single-stranded RNA substrate, uHTS hits (AID 588481); assay type: functional
T5 sequence (P0AE70 whole entry): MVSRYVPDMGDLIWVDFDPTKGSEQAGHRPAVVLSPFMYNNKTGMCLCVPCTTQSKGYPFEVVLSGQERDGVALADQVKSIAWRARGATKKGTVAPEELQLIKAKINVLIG

[10] = molecular target: T5, Endoribonuclease toxin MazF; assay: fluorescent RNA oligo signal without MazF, dose response, counter-screen for MazEF activator project, biochemical, fluorescence, single-stranded RNase substrate (AID 588502); assay type: functional
[11] = molecular target: Dual specificity tyrosine-phosphorylation-regulated kinase 1A (Rattus norvegicus, UniProt Q63470); assay type: biochemical, Homo sapiens
[12] = molecular target: Ras and Rab interactor 1/Tyrosine-protein kinase ABL1 (Homo sapiens, UniProt P00519+Q13671); assay type: functional;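 further: biochemical TR-FRET dose-response test measuring inhibition of binding between Rin1 and Abl proteins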
[13] = molecular target: T6, Rac GTPase-activating protein 1 (Homo sapiens, UniProt Q9H0H5); assay: MgcRacGAP GTPase-activating activity inhibitors, confirmation, biochemical, ADP Hunter fluorescence, primary and confirmatory (AID 624330); assay type: functional
T6 sequence (Q9H0H5 whole entry): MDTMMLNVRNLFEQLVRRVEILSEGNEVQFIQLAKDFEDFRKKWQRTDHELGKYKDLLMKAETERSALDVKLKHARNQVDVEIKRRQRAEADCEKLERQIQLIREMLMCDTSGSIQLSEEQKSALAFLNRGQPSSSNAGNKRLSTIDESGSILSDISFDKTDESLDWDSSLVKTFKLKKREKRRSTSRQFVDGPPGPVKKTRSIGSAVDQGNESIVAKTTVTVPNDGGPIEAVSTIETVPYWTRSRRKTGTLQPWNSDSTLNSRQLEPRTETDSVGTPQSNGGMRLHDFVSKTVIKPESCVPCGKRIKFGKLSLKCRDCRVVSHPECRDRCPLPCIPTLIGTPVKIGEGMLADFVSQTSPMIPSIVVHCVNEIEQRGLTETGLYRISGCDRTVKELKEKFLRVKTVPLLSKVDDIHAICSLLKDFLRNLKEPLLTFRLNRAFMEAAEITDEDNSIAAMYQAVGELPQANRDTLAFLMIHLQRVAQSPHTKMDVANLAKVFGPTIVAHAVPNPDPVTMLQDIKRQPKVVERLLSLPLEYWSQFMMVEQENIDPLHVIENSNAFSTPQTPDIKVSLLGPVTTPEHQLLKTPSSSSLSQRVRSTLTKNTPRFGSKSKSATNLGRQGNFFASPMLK

T2 sequence (Q9UBE0 whole entry): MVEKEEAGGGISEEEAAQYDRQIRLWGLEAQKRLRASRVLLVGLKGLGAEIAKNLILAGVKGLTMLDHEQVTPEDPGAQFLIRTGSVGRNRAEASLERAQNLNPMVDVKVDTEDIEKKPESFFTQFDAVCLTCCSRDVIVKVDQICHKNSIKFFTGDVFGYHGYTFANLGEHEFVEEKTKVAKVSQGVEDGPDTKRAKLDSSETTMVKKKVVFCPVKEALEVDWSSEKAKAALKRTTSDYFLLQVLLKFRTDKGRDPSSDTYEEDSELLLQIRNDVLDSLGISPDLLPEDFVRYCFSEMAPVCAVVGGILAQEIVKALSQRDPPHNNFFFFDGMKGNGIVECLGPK
T2 sequence (Q9UBT2 whole entry): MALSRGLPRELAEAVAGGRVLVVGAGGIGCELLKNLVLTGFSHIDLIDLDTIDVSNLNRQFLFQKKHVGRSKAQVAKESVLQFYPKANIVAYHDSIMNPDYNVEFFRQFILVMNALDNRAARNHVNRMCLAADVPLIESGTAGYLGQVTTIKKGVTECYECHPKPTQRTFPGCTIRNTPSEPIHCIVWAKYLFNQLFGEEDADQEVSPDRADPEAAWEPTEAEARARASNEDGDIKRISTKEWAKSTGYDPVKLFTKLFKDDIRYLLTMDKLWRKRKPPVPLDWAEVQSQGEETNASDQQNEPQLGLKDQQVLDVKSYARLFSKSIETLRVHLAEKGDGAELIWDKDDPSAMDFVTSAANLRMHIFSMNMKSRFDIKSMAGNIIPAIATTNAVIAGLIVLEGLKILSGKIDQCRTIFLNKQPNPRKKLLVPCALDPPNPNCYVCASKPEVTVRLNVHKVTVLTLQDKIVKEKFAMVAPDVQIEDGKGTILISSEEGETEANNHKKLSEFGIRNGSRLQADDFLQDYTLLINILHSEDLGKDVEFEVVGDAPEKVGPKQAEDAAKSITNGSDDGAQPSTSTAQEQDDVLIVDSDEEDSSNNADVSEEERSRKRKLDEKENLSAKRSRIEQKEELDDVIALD
Sequence of Large T antigen (P03070 whole entry): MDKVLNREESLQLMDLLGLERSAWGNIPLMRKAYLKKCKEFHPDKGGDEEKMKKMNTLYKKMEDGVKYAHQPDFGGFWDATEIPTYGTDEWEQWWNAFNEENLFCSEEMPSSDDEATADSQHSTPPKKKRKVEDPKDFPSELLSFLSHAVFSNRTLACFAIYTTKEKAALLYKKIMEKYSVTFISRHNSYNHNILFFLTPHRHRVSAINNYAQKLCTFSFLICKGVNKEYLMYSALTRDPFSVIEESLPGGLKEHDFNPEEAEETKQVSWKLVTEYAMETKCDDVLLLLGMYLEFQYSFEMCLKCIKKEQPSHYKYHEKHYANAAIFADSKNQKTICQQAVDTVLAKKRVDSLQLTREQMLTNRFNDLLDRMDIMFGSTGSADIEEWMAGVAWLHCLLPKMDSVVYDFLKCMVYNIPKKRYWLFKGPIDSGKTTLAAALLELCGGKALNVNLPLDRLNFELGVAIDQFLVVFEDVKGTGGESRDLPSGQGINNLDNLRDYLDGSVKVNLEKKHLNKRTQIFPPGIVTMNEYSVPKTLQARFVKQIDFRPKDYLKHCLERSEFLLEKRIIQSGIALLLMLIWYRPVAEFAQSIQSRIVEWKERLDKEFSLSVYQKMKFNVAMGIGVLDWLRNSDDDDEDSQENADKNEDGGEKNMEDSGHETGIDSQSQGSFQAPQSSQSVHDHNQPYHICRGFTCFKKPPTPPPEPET
Sequence of Ras and Rab interactor 1/Tyrosine-protein kinase ABL1 (P00519 whole entry): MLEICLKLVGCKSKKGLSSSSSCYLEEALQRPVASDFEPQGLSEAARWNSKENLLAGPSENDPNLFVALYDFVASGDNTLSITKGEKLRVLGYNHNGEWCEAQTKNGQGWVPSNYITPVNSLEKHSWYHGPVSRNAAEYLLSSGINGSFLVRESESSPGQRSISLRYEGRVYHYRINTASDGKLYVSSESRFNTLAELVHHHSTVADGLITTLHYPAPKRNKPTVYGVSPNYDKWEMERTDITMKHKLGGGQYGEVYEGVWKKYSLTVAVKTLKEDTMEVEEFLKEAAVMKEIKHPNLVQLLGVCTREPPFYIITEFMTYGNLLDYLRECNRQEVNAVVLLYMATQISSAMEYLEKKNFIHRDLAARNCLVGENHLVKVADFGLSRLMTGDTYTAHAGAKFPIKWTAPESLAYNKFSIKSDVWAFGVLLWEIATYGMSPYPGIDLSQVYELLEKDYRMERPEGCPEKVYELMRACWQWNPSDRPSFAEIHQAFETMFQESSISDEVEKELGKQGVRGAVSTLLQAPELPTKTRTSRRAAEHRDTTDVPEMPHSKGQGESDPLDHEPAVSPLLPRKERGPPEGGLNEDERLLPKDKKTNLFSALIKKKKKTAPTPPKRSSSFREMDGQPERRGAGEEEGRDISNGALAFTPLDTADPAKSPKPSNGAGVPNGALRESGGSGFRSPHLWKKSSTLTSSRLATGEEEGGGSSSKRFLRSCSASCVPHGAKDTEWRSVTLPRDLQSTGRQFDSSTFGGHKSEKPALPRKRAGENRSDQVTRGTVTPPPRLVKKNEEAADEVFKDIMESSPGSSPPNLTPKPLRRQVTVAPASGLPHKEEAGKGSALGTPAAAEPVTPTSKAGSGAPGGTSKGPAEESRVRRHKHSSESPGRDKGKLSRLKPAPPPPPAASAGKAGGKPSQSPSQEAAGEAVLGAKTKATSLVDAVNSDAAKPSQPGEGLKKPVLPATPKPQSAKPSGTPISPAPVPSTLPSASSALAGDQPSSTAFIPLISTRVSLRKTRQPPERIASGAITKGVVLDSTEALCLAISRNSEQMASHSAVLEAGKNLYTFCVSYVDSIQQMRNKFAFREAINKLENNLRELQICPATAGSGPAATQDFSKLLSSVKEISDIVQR
Sequence of Ras and Rab interactor 1/Tyrosine-protein kinase ABL1 (Q13671 whole entry): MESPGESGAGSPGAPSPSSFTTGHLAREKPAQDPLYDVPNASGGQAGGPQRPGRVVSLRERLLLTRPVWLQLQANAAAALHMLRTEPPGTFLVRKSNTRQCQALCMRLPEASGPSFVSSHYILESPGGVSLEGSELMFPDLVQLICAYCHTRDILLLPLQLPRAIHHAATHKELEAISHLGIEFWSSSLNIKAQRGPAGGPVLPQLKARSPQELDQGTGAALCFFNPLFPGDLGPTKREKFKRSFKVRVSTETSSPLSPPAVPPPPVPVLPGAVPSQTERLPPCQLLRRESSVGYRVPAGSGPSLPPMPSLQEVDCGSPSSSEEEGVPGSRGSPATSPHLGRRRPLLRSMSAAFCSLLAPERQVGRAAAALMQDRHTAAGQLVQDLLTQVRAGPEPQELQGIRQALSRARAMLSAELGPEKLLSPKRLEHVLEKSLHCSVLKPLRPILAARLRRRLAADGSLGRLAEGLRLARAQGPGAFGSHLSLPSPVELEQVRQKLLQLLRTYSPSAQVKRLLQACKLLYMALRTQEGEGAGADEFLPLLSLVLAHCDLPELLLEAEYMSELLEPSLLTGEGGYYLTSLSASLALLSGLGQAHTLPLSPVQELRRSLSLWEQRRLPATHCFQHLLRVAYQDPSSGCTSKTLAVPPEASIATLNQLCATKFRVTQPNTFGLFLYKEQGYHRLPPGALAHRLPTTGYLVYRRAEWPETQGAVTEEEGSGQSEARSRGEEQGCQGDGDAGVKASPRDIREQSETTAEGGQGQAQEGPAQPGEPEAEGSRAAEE
Sequence of Cyclin-dependent kinase 5/CDK5 activator 1 (Q00535 whole entry): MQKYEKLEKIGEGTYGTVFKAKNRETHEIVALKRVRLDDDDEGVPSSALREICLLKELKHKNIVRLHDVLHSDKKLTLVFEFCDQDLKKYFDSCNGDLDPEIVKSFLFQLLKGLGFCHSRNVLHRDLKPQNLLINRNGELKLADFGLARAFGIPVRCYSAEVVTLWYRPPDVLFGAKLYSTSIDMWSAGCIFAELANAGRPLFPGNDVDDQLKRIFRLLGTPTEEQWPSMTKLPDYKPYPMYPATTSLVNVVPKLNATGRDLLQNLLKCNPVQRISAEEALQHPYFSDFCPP
Sequence of Cyclin-dependent kinase 5/CDK5 activator 1 (Q15078 whole entry, further chain): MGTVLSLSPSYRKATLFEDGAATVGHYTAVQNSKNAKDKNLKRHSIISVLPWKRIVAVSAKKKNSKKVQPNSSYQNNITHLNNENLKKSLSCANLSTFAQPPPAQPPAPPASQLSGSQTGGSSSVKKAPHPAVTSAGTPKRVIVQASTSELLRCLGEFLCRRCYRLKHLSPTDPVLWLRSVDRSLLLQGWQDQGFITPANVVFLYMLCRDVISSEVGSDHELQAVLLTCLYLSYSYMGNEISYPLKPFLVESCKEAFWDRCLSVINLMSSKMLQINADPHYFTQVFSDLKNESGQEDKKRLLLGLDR
Sequence of Neuropeptides B/W receptor type 1 (P48145 whole entry): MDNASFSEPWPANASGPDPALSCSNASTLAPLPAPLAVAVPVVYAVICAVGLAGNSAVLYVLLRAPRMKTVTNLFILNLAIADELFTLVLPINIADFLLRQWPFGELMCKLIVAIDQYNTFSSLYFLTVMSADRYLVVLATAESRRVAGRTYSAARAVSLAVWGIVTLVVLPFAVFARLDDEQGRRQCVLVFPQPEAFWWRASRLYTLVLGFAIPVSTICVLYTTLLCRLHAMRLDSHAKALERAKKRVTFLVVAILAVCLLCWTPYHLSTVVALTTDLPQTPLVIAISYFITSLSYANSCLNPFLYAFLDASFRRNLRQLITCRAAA
Sequence of Melanin-concentrating hormone receptor 1 (Q99705 whole entry): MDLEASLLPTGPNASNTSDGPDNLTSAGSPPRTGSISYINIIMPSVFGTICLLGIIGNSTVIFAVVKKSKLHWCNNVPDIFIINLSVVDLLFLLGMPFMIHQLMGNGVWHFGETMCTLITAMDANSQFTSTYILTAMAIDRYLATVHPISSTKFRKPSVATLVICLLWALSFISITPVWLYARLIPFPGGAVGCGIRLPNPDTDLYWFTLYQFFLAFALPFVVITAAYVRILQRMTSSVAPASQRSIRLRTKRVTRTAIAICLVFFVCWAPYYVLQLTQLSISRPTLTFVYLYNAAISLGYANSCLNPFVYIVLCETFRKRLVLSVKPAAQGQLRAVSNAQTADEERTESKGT

COc1ccc(S(=O)(=O)c2nnn3c2[nH]c(=O)c2ccccc23)cc1
IC50 (Staphylococcus aureus): 0.563 µM (active)

N=C1/C(=C\c2ccc(SCc3ccco3)o2)C(=O)N=C2SC=NN12
EC50 [1]: > 300 µM (not active)
IC50 (SUMO-activating enzyme [2]): 2.28 µM (active)
EC50 [3]: > 300 µM (not active)
IC50 (Large T antigen): 59.6 µM (active)
IC50 (SUMO-activating enzyme [4]): 32.7 µM (active)
AC50 (Cytochrome P450 2C19): 15.8 µM (inconclusive)
AC50 (Cytochrome P450 2D6): 15.8 µM (inconclusive)
AC50 (Cytochrome P450 1A2): 1.58 µM (inconclusive)

Cc1cc(C[n+]2cc(Br)ccc2N)c2ncccc2c1
CC50 [5]: 46.4 µM (active)
IC50 [6]: > 43.8 µM (not active)
IC50 [7]: 26.2 µM (not active)

O=c1c(O)c(-c2ccc(O)c(O)c2)oc2cc(O)ccc12
AC50 [8]: 1.69 µM (active)
EC50 [9]: > 99 µM (inactive)
EC50 [10]: > 99 µM (inactive)
AC50 [11]: 0.248 µM (active)
IC50 [12]: > 73.5 µM (inactive)
IC50 [13]: 45.7 µM (active)
